Here are results for one compound from US20220362405A1, “COMPOSITIONS AND METHODS FOR TREATING LIVER DISEASE” (UNIVERSITY OF PITTSBURGH-OF THE COMMONWEALTH SYSTEM OF …, priority 2019, published 2022).

This test deals with AKT. The test can be described thus: AKT inhibition in normal human hepatocytes (western blot). The format is cell-based. The settings on record: 5 μM MK-2206, 24 hours, freshly isolated normal human hepatocytes, preliminary experiments. The text has this: Protein extraction and Western blotting. To perform the protein expression analysis, the isolated hepatocytes were divided in two fractions; one fraction was used for total protein extraction, according to standard procedures previously described (Bell A W et al., 2006) and the other fraction was used for nuclear protein isolation. For nuclear protein isolation, between 1×10^7 and 5×10^7 isolated hepatocytes per patient were washed and harvested in 40 mmol/L Tris (pH 7.6), 14 mmol/L NaCl, and 1 mmol/L EDTA, then centrifuged (5 min, 100g). Cell pellets were suspended in 2 mL of hypotonic buffer [10 mmol/L HEPES (pH 7.9), 10 mmol/L NaH2PO4, 1.5 mmol/L MgCl2, 1 mmol/L DTT, 0.5 mmol/L spermidine, and […] with protease and phosphatase inhibitor cocktails (Sigma, St. Louis, Mo.)]. Following 10 minutes of incubation on ice, samples were homogenized in a Dounce homogenizer and then centrifuged (5 min, 800 g). Cell lysis was monitored with trypan blue stain. Supernatants were saved as cytoplasmic extracts. The nuclei pellets were washed two additional times in the same buffer.
Nuclear proteins were extracted in 50-100 μL of hypertonic buffer [30 mmol/L HEPES (pH 7.9), 25% glycerol, 450 mmol/L NaCl, 12 mmol/L MgCl2, 1 mmol/L DTT, and 0.1 mmol/L EDTA with protease and phosphatase inhibitor cocktails (Sigma, St. Louis, Mo.)] for 45 minutes at 4° C. with continuous agitation. Extracts were centrifuged at 30,000 g, and the supernatants were collected and dialyzed for 2 hours against the same solution but containing 150 mmol/L NaCl. Protein concentration was determined by the Bicinchoninic Acid assay (Sigma, St. Louis, Mo.).
Western blot analysis performed according to standard procedures (Natarajan A et al., 2007). The intensity of each protein band was quantitated using National Institutes of Health Image J software. The primary antibodies and its dilutions are listed in the above shown Table 2.
AKT Inhibition in Normal Human Hepatocytes. Normal human hepatocytes (1 million cells/well) were cultured on collagen-coated wells. […]
For orientation: Immunoblotting shows a protein as a band on a membrane.

For `NC1(c2ccc(-c3nc4ccn5c(=O)[nH]nc5c4cc3-c3ccccc3)cc2)CCC1` [MK-2206], the “acetylated nuclear HNF4α expression reduced compared with nontreated controls” value came to 14%, the “activated AKT(Thr308) expression reduced compared with nontreated controls” value is recorded as 80% and the “nuclear HNF4α expression reduced compared with nontreated controls” value amounted to 25%.
